The source of these data is the METLIN SMRT retention time set (Domingo-Almenara et al. 2019).

A short description of this data set: gradient 5% acetonitrile 3 min, to 50% in 2 min, to 85% in 15 min, held 3 min, 100 µL/min. The settings on record: column: Zorbax Extend-C18 2.1 x 50 mm; eluents: water / acetonitrile, 0.1% formic acid. Summed up:
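Using water and acetonitrile that each contained 0.1% formic acid, mixtures of ~100 pure standards were separated at 100 μL/min on a Zorbax Extend-C18 column (2.1 × 50 mm, 1.8 μm). The HPLC fed a quadrupole time-of-flight mass spectrometer working in positive and negative ionization mode, with dead and dwell volumes of 40 μL and 900 μL. Data were acquired over 3 months. Retention time was read from computationally picked adduct peaks after manual inspection of each.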
`Cc1cc2nn(CC(=O)Nc3ccc4c(c3)OCCO4)c(=O)n2c(Nc2ccccc2C)n1`: the RP-LC retention time was 908 s.
To `Cc1nc(-c2ccc(F)cc2)sc1C(=O)N[C@@H](Cc1c[nH]c2ccccc12)C(=O)O` belongs 838 s; to `Cc1cccc(-c2nc(C)c(C(=O)NC3CC3)s2)c1`, 869 s.
Take `CCc1nc2ccc(-c3noc(CNS(=O)(=O)c4ccccc4)n3)cc2n1CC`: the RP-LC retention time came out at 653 s.
To `Cc1nn2c(CNC(=O)C3CCN(C(=O)c4ccccc4)CC3)c(C)nc2s1` belongs 584 s; to `O=C(c1cccnc1)N1CCN(c2nnnn2-c2ccccc2)CC1`, 588 s.
To `Cc1ccc(Cl)cc1N1CCN(C(=O)CCN2C(=O)C3C4C=CC(C4)C3C2=O)CC1` (configuration not stated) belongs 989 s.
To `COc1ccc(NC(=O)Cn2c(C(F)(F)F)nc3cc4c(cc32)OCCO4)cc1` belongs 829 s.
In turn, `CCOC(=O)C(C)NC(=O)N1CCN(Cc2nc3cccnc3n2-c2cc(C)cc(C)c2)CC1` (configuration not stated) yielded an RP-LC retention time of 658 s.
On to `Cc1ccc(CCNC(=O)c2ccc3c(c2)N(C)C(=O)C2CCCCN32)cc1` (configuration not stated), for which the RP-LC retention time was found to be 947 s.
With `O=C(NCc1nc(-c2ccc3c(c2)ncn3C2CCCC2)no1)c1ccco1` the figure was 655 s; with `COc1ccc(OC)c(NC(=O)N2CCCC(Cn3cnc4cccnc43)C2)c1` (configuration not stated), 682 s; with `CCOC(=O)c1ccc(NC(=O)C2CCC(=O)N2S(=O)(=O)c2ccc(C)c(C)c2)cc1` (configuration not stated), 978 s.
With `O=S(=O)(NCc1ccc(F)cc1)c1ccc(N2CCCCS2(=O)=O)cc1` the figure was 777 s.
Regarding `CN(C(=O)Cn1cnc2nc3c(cc2c1=O)CCCC3)c1ccccc1F`, the RP-LC retention time turned out to be 722 s.
To `Cc1nnc(-c2cc(S(=O)(=O)Nc3ccc(S(N)(=O)=O)cc3)c(C)n2C)o1` belongs 649 s; to `Cc1cccc2nc(-c3ccc(N4CCOCC4)cc3)c(Nc3ccc4c(c3)OCCO4)n12`, 664 s.
To `COC(=O)c1ccccc1Nc1c(-c2ccc(OC)cc2)nc2cnccn12` belongs 948 s; to `COc1ccccc1-c1cc2c(=O)n(Cc3nc(-c4cccc(OC)c4OC)oc3C)ccn2n1`, 1060 s; to `O=C(NC1CC1)c1ccccc1OCC1CCCN(Cc2ccc3c(c2)CCO3)C1` (configuration not stated), 580 s.
With `CCOC(=O)C1CCN(C(=O)C2CCN(S(=O)(=O)c3ccc4c(c3)CCCC(=O)N4)CC2)CC1` the figure was 713 s.
As for `Cc1ccc(NC(=O)C2CCc3sc(C(=O)N4CCOCC4)cc3C2)cc1C` (configuration not stated), the RP-LC retention time was determined as 570 s.
`CCc1nc(-c2cccc(-c3noc(CNC(=O)Cc4ccccc4)n3)c2)cs1` came in with an RP-LC retention time of 1000 s.
With `CCc1csc(-c2ccc(N3CCN(C(=O)c4nccc5ccccc45)CC3)nc2)n1` the figure was 938 s; with `Cc1ccc(NS(=O)(=O)c2ccc([N+](=O)[O-])cc2)c(-c2nc3ccccc3[nH]c2=O)c1`, 858 s; with `Cc1nnc2ccc(-c3noc(Cc4ccccc4Br)n3)cn12`, 838 s.
Regarding `Cc1cc(OCCN2CC2)c2ccccc2n1`, the RP-LC retention time stood at 664 s.
Take `Cc1sc(-c2nnc(C3CC3)o2)cc1NC(=O)Cc1ccc(F)cc1`: the RP-LC retention time was 956 s.
To `CC(C)C(=O)Nc1cccnc1` belongs 583 s; to `COc1ccc(-c2c(C)noc2NC(C)=O)cc1S(=O)(=O)N1CCCCCC1`, 788 s.
With `Cc1ccc(C)c(-c2csc3c(=O)n(CC(=O)OC(C)(C)C)cnc23)c1` the figure was 1110 s; with `CCOC(=O)c1ccc(NC(=O)N2CCc3nc[nH]c3C2)cc1`, 609 s.
